Measurements taken from the supplement of paper PMC6045584.
± gives the standard deviation of the averaged measurements.

How the values were obtained:
[1] = compound: C[C@@H](Oc1cc(-c2cnn(C3CCNCC3)c2)cnc1N)c1c(Cl)ccc(F)c1Cl; assay: surviving fraction relative to DMSO-only wells; higher = less growth inhibition; conditions: exposure time: 5 days
In short: (§1)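 Log-phase tumour cell lines, 250–500 cells per well in 384-well plates, received inhibitors at 0.5, 1, 5, 10, 50, 100, 500 and 1000 nM continuously for five days, starting 24 hours after seeding. Viability was quantified with CellTiter-Glo luminescence and normalised to the median of DMSO-only wells to give surviving fraction. Three screens were run per line, and a line stayed in only with replicate Pearson r >0.7 and median Z' >0.3.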

[2] = compound: CNCc1ccc(-c2[nH]c3cc(F)cc4c3c2CCNC4=O)cc1; assay: as above; conditions: exposure time: 5 days
In short: as §1

## HCC1395 BREAST
[1]; 0.5 nM
  surviving fraction: 0.831 ± 0.14
[1]; 1 nM
  surviving fraction: 0.74 ± 0.087
[1]; 5 nM
  surviving fraction: 0.814 ± 0.074
[1]; 10 nM
  surviving fraction: 0.838 ± 0.097
[1]; 50 nM
  surviving fraction: 1.01 ± 0.11
[1]; 100 nM
  surviving fraction: 1 ± 0.065
[1]; 1000 nM
  surviving fraction: 1 ± 0.089
[2]; 0.5 nM
  surviving fraction: 0.901 ± 0.016
[2]; 1 nM
  surviving fraction: 0.981 ± 0.02
[2]; 5 nM
  surviving fraction: 1.09 ± 0.011
[2]; 10 nM
  surviving fraction: 0.92 ± 0.058
[2]; 50 nM
  surviving fraction: 0.873 ± 0.12
[2]; 100 nM
  surviving fraction: 0.828 ± 0.071
[2]; 500 nM
  surviving fraction: 0.736 ± 0.041
[2]; 1000 nM
  surviving fraction: 0.809 ± 0.028

## NOS1 BONE
[1]; 0.5 nM
  surviving fraction: 0.889 ± 0.05
[1]; 1 nM
  surviving fraction: 0.856 ± 0.046
[1]; 10 nM
  surviving fraction: 0.929 ± 0.1
[1]; 50 nM
  surviving fraction: 1.17 ± 0.06
[1]; 100 nM
  surviving fraction: 0.988 ± 0.04
[1]; 500 nM
  surviving fraction: 0.742 ± 0.055
[1]; 1000 nM
  surviving fraction: 0.401 ± 0.026
[2]; 0.5 nM
  surviving fraction: 1.01 ± 0.042
[2]; 1 nM
  surviving fraction: 1.08 ± 0.23
[2]; 5 nM
  surviving fraction: 1.06 ± 0.13
[2]; 10 nM
  surviving fraction: 0.919 ± 0.11
[2]; 50 nM
  surviving fraction: 0.795 ± 0.1
[2]; 100 nM
  surviving fraction: 0.798 ± 0.11
[2]; 500 nM
  surviving fraction: 0.632 ± 0.049
[2]; 1000 nM
  surviving fraction: 0.602 ± 0.036

## RDES SOFT TISSUE
[1]; 0.5 nM
  surviving fraction: 0.735 ± 0.13
[1]; 1 nM
  surviving fraction: 0.716 ± 0.093
[1]; 5 nM
  surviving fraction: 0.832 ± 0.028
[1]; 10 nM
  surviving fraction: 0.69 ± 0.075
[1]; 50 nM
  surviving fraction: 1.02 ± 0.19
[1]; 100 nM
  surviving fraction: 0.926 ± 0.17
[1]; 500 nM
  surviving fraction: 1.26 ± 0.02
[1]; 1000 nM
  surviving fraction: 0.127 ± 0.023
[2]; 0.5 nM
  surviving fraction: 1.15 ± 0.059
[2]; 1 nM
  surviving fraction: 1.09 ± 0.17
[2]; 5 nM
  surviving fraction: 1.02 ± 0.049
[2]; 10 nM
  surviving fraction: 1.06 ± 0.042
[2]; 50 nM
  surviving fraction: 0.918 ± 0.19
[2]; 100 nM
  surviving fraction: 1.06 ± 0.089
[2]; 500 nM
  surviving fraction: 1.14 ± 0.036
[2]; 1000 nM
  surviving fraction: 1.38 ± 0.15

## MDAMB453 BREAST
[1]; 0.5 nM
  surviving fraction: 0.994 ± 0.054
[1]; 5 nM
  surviving fraction: 1.02 ± 0.074
[1]; 10 nM
  surviving fraction: 1.03 ± 0.026
[1]; 50 nM
  surviving fraction: 1.06 ± 0.014
[1]; 100 nM
  surviving fraction: 1.06 ± 0.05
[1]; 500 nM
  surviving fraction: 0.771 ± 0.029
[1]; 1000 nM
  surviving fraction: 0.637 ± 0.013
[2]; 0.5 nM
  surviving fraction: 0.991 ± 0.071
[2]; 1 nM
  surviving fraction: 1.01 ± 0.096
[2]; 5 nM
  surviving fraction: 1.05 ± 0.049
[2]; 10 nM
  surviving fraction: 0.979 ± 0.093
[2]; 50 nM
  surviving fraction: 0.919 ± 0.062
[2]; 100 nM
  surviving fraction: 0.957 ± 0.06
[2]; 500 nM
  surviving fraction: 0.892 ± 0.022
[2]; 1000 nM
  surviving fraction: 0.696 ± 0.017

## NY BONE
[1]; 0.5 nM
  surviving fraction: 0.948 ± 0.02
[1]; 1 nM
  surviving fraction: 0.9253 ± 0.0076
[1]; 5 nM
  surviving fraction: 0.959 ± 0.0089
[1]; 10 nM
  surviving fraction: 0.9633 ± 0.0086
[1]; 50 nM
  surviving fraction: 0.9303 ± 0.0083
[1]; 100 nM
  surviving fraction: 0.885 ± 0.022
[1]; 500 nM
  surviving fraction: 0.701 ± 0.03
[1]; 1000 nM
  surviving fraction: 0.524 ± 0.018
[2]; 0.5 nM
  surviving fraction: 0.989 ± 0.016
[2]; 1 nM
  surviving fraction: 0.99 ± 0.044
[2]; 5 nM
  surviving fraction: 1.05 ± 0.042
[2]; 10 nM
  surviving fraction: 1.01 ± 0.055
[2]; 50 nM
  surviving fraction: 0.981 ± 0.033
[2]; 100 nM
  surviving fraction: 1.026 ± 0.0093
[2]; 500 nM
  surviving fraction: 0.895 ± 0.03
[2]; 1000 nM
  surviving fraction: 0.827 ± 0.052

## HOS BONE
[1]; 0.5 nM
  surviving fraction: 0.934 ± 0.018
[1]; 1 nM
  surviving fraction: 0.938 ± 0.019
[1]; 5 nM
  surviving fraction: 0.966 ± 0.03
[1]; 50 nM
  surviving fraction: 1.008 ± 0.0042
[1]; 100 nM
  surviving fraction: 0.997 ± 0.038
[1]; 500 nM
  surviving fraction: 0.571 ± 0.029
[1]; 1000 nM
  surviving fraction: 0.499 ± 0.023
[2]; 0.5 nM
  surviving fraction: 1.02 ± 0.017
[2]; 1 nM
  surviving fraction: 1.05 ± 0.034
[2]; 5 nM
  surviving fraction: 1.01 ± 0.015
[2]; 10 nM
  surviving fraction: 1.029 ± 0.01
[2]; 50 nM
  surviving fraction: 1.01 ± 0.023
[2]; 100 nM
  surviving fraction: 0.994 ± 0.022
[2]; 500 nM
  surviving fraction: 1.02 ± 0.019
[2]; 1000 nM
  surviving fraction: 0.9833 ± 0.0055

## CAL51 BREAST
[1]; 0.5 nM
  surviving fraction: 0.958 ± 0.033
[1]; 1 nM
  surviving fraction: 0.918 ± 0.099
[1]; 5 nM
  surviving fraction: 1 ± 0.023
[1]; 10 nM
  surviving fraction: 0.909 ± 0.049
[1]; 50 nM
  surviving fraction: 0.972 ± 0.046
[1]; 100 nM
  surviving fraction: 0.949 ± 0.026
[1]; 500 nM
  surviving fraction: 0.215 ± 0.017
[1]; 1000 nM
  surviving fraction: 0.175 ± 0.0096
[2]; 0.5 nM
  surviving fraction: 0.935 ± 0.033
[2]; 1 nM
  surviving fraction: 0.96 ± 0.04
[2]; 5 nM
  surviving fraction: 0.927 ± 0.023
[2]; 10 nM
  surviving fraction: 0.848 ± 0.052
[2]; 50 nM
  surviving fraction: 0.954 ± 0.019
[2]; 100 nM
  surviving fraction: 0.819 ± 0.021
[2]; 500 nM
  surviving fraction: 0.706 ± 0.035
[2]; 1000 nM
  surviving fraction: 0.604 ± 0.021

## MDAMB134 BREAST
[1]; 0.5 nM
  surviving fraction: 0.712 ± 0.097
[1]; 1 nM
  surviving fraction: 0.718 ± 0.13
[1]; 5 nM
  surviving fraction: 0.624 ± 0.11
[1]; 10 nM
  surviving fraction: 0.667 ± 0.0014
[1]; 50 nM
  surviving fraction: 0.854 ± 0.029
[1]; 100 nM
  surviving fraction: 0.767 ± 0.038
[1]; 500 nM
  surviving fraction: 0.758 ± 0.097
[1]; 1000 nM
  surviving fraction: 0.709 ± 0.1
[2]; 0.5 nM
  surviving fraction: 0.811 ± 0.061
[2]; 1 nM
  surviving fraction: 0.818 ± 0.12
[2]; 5 nM
  surviving fraction: 0.814 ± 0.051
[2]; 10 nM
  surviving fraction: 0.8795 ± 0.0078
[2]; 50 nM
  surviving fraction: 0.703 ± 0.19
[2]; 100 nM
  surviving fraction: 0.764 ± 0.13
[2]; 500 nM
  surviving fraction: 0.824 ± 0.21
[2]; 1000 nM
  surviving fraction: 0.986 ± 0.4

## KPD BONE
[1]; 0.5 nM
  surviving fraction: 0.886 ± 0.043
[1]; 1 nM
  surviving fraction: 0.87 ± 0.013
[1]; 5 nM
  surviving fraction: 0.974 ± 0.039
[1]; 50 nM
  surviving fraction: 0.987 ± 0.083
[1]; 500 nM
  surviving fraction: 0.518 ± 0.011
[1]; 1000 nM
  surviving fraction: 0.156 ± 0.012
[2]; 0.5 nM
  surviving fraction: 0.975 ± 0.058
[2]; 1 nM
  surviving fraction: 0.983 ± 0.022
[2]; 5 nM
  surviving fraction: 1.13 ± 0.15
[2]; 10 nM
  surviving fraction: 1.05 ± 0.028
[2]; 50 nM
  surviving fraction: 0.956 ± 0.032
[2]; 100 nM
  surviving fraction: 0.95 ± 0.022
[2]; 500 nM
  surviving fraction: 0.876 ± 0.022
[2]; 1000 nM
  surviving fraction: 0.732 ± 0.046

## MG63 BONE
[1]; 0.5 nM
  surviving fraction: 0.898 ± 0.011
[1]; 1 nM
  surviving fraction: 0.912 ± 0.016
[1]; 50 nM
  surviving fraction: 0.91 ± 0.029
[1]; 100 nM
  surviving fraction: 0.827 ± 0.023
[1]; 500 nM
  surviving fraction: 0.711 ± 0.02
[1]; 1000 nM
  surviving fraction: 0.607 ± 0.004
[2]; 0.5 nM
  surviving fraction: 1.03 ± 0.052
[2]; 1 nM
  surviving fraction: 1.04 ± 0.032
[2]; 5 nM
  surviving fraction: 1.05 ± 0.034
[2]; 10 nM
  surviving fraction: 1.06 ± 0.058
[2]; 50 nM
  surviving fraction: 1.03 ± 0.03
[2]; 100 nM
  surviving fraction: 1.02 ± 0.028
[2]; 500 nM
  surviving fraction: 0.975 ± 0.031
[2]; 1000 nM
  surviving fraction: 0.938 ± 0.023

## SG28 HEADNECK
[1]; 1 nM
  surviving fraction: 0.918 ± 0.053
[1]; 5 nM
  surviving fraction: 0.85 ± 0.067
[1]; 50 nM
  surviving fraction: 1 ± 0.042
[1]; 100 nM
  surviving fraction: 1.07 ± 0.098
[1]; 1000 nM
  surviving fraction: 0.764 ± 0.12
[2]; 0.5 nM
  surviving fraction: 1.09 ± 0.1
[2]; 1 nM
  surviving fraction: 0.995 ± 0.011
[2]; 5 nM
  surviving fraction: 0.953 ± 0.012
[2]; 10 nM
  surviving fraction: 1 ± 0.073
[2]; 50 nM
  surviving fraction: 0.763 ± 0.056
[2]; 100 nM
  surviving fraction: 0.723 ± 0.046
[2]; 500 nM
  surviving fraction: 0.798 ± 0.086
[2]; 1000 nM
  surviving fraction: 0.76 ± 0.12
